Test results reported in the supplement of paper PMC10307832.

Columns and labels:
Assay in all cases: relative viability (nuclei count vs DMSO), 5 days (fraction); higher = more cells survive
SW 1573 = tested on: SW 1573
In short: (§1)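 After 5 days of treatment, lung cancer cells in 1536-well plates were fixed and stained in a single step (final 0.05% Triton X-100, 1% formaldehyde, 1 ug/ml Hoechst) and their nuclei counted on 4× images. Treatment had been applied by pin tool the day after seeding as one drug alone or as a fixed anchor-drug dose with five library-drug doses (not always all listed) in √10 steps. Relative viability is the nuclei count of treated wells divided by that of vehicle wells, and values are medians of duplicate plates.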

ABC-1 = tested on: ABC-1
In short: as §1

ChaGo-K-1 = tested on: ChaGo-K-1
In short: as §1

HCC-44 = tested on: HCC-44
In short: as §1

NCI-H2228 = tested on: NCI-H2228
In short: as §1

NCI-H2405 = tested on: NCI-H2405
In short: as §1

HCC-366 = tested on: HCC-366
In short: as §1

NCI-H2347 = tested on: NCI-H2347
In short: as §1

NCI-H3122 = tested on: NCI-H3122
In short: as §1

HCC-827 = tested on: HCC-827
In short: as §1

HCC-15 = tested on: HCC-15
In short: as §1

NCI-H1944 = tested on: NCI-H1944
In short: as §1

NCI-H1355 = tested on: NCI-H1355
In short: as §1

NCI-H2085 = tested on: NCI-H2085
In short: as §1

COR-L23 = tested on: COR-L23
In short: as §1

PC-14 = tested on: PC-14
In short: as §1

EPLC-272H = tested on: EPLC-272H
In short: as §1

NCI-H2023 = tested on: NCI-H2023
In short: as §1

LCLC-103H = tested on: LCLC-103H
In short: as §1

NCI-H1734 = tested on: NCI-H1734
In short: as §1

NCI-H2009 = tested on: NCI-H2009
In short: as §1

In the case of `Cc1csc(=NC2CCCCC2)n1/N=C/c1ccc(O)c(O)c1O` [MIM1] + C[C@@H](Oc1cc(-c2cnn(C3CCNCC3)c2)cnc1N)c1c(Cl)ccc(F)c1Cl [Crizotinib] (partner 1 µM), the relative viability (SW 1573; first compound 0.2 µM) is reported as 0.8, the relative viability (SW 1573; first compound 0.6325 µM) is reported as 0.847 and the relative viability (SW 1573; first compound 2 µM) is reported as 0.875. It also gave a relative viability (SW 1573; first compound 6.325 µM) of 0.661, a relative viability (SW 1573; first compound 20 µM) of 0.451 and a relative viability (ABC-1; first compound 0.2 µM) of 1.08. For the same molecule, the relative viability (ABC-1; first compound 0.6325 µM) was 1.22, the relative viability (ABC-1; first compound 2 µM) was 0.846 and the relative viability (ABC-1; first compound 6.325 µM) was 0.286. It also gave a relative viability (ABC-1; first compound 20 µM) of 0.226, a relative viability (ChaGo-K-1; first compound 0.2 µM) of 1.07 and a relative viability (ChaGo-K-1; first compound 0.6325 µM) of 1.13. For the same molecule, the relative viability (ChaGo-K-1; first compound 2 µM) was 0.953, the relative viability (ChaGo-K-1; first compound 6.325 µM) was 0.835 and the relative viability (ChaGo-K-1; first compound 20 µM) was 0.285. It also gave a relative viability (HCC-44; first compound 0.2 µM) of 0.766, a relative viability (HCC-44; first compound 0.6325 µM) of 0.74 and a relative viability (HCC-44; first compound 2 µM) of 0.67. For the same molecule, the relative viability (HCC-44; first compound 6.325 µM) was 0.391, the relative viability (HCC-44; first compound 20 µM) was 0.152 and the relative viability (NCI-H2228; first compound 0.2 µM) was 0.453. The relative viability (NCI-H2228; first compound 0.6325 µM) was 0.488, the relative viability (NCI-H2228; first compound 2 µM) was 0.61 and the relative viability (NCI-H2228; first compound 6.325 µM) was 0.241. The relative viability (NCI-H2228; first compound 20 µM) was 0.22, the relative viability (NCI-H2405; first compound 0.2 µM) was 0.883 and the relative viability (NCI-H2405; first compound 0.6325 µM) was 0.864. It also gave a relative viability (NCI-H2405; first compound 2 µM) of 0.912, a relative viability (NCI-H2405; first compound 6.325 µM) of 0.701 and a relative viability (NCI-H2405; first compound 20 µM) of 0.508. For the same molecule, the relative viability (HCC-366; first compound 0.2 µM) was 0.552, the relative viability (HCC-366; first compound 0.6325 µM) was 0.483 and the relative viability (HCC-366; first compound 2 µM) was 0.326. For the same molecule, the relative viability (HCC-366; first compound 6.325 µM) was 0.425, the relative viability (HCC-366; first compound 20 µM) was 0.0362 and the relative viability (NCI-H2347; first compound 0.2 µM) was 0.584. It also gave a relative viability (NCI-H2347; first compound 0.6325 µM) of 0.548, a relative viability (NCI-H2347; first compound 2 µM) of 0.677 and a relative viability (NCI-H2347; first compound 6.325 µM) of 0.577. The relative viability (NCI-H2347; first compound 20 µM) was 0.4, the relative viability (NCI-H3122; first compound 0.2 µM) was 0.272 and the relative viability (NCI-H3122; first compound 0.6325 µM) was 0.251. The relative viability (NCI-H3122; first compound 2 µM) was 0.32, the relative viability (NCI-H3122; first compound 6.325 µM) was 0.294 and the relative viability (NCI-H3122; first compound 20 µM) was 0.204. The relative viability (HCC-827; first compound 0.2 µM) was 0.971, the relative viability (HCC-827; first compound 0.6325 µM) was 0.919 and the relative viability (HCC-827; first compound 2 µM) was 0.927. The relative viability (HCC-827; first compound 6.325 µM) was 0.307, the relative viability (HCC-827; first compound 20 µM) was 0.366 and the relative viability (HCC-15; first compound 0.2 µM) was 0.801. It also gave a relative viability (HCC-15; first compound 0.6325 µM) of 0.808, a relative viability (HCC-15; first compound 2 µM) of 0.86 and a relative viability (HCC-15; first compound 6.325 µM) of 0.406. The relative viability (HCC-15; first compound 20 µM) was 0.12, the relative viability (NCI-H1944; first compound 0.2 µM) was 1.11 and the relative viability (NCI-H1944; first compound 0.6325 µM) was 1.09. The relative viability (NCI-H1944; first compound 2 µM) was 0.754, the relative viability (NCI-H1944; first compound 6.325 µM) was 0.811 and the relative viability (NCI-H1944; first compound 20 µM) was 0.323. For the same molecule, the relative viability (NCI-H1355; first compound 0.2 µM) was 1.04, the relative viability (NCI-H1355; first compound 0.6325 µM) was 1.16 and the relative viability (NCI-H1355; first compound 2 µM) was 1. The relative viability (NCI-H1355; first compound 6.325 µM) was 0.94, the relative viability (NCI-H1355; first compound 20 µM) was 0.516 and the relative viability (NCI-H2085; first compound 0.2 µM) was 0.851. It also gave a relative viability (NCI-H2085; first compound 0.6325 µM) of 0.85, a relative viability (NCI-H2085; first compound 2 µM) of 0.761 and a relative viability (NCI-H2085; first compound 6.325 µM) of 0.825. It also gave a relative viability (NCI-H2085; first compound 20 µM) of 0.847, a relative viability (COR-L23; first compound 0.2 µM) of 0.571 and a relative viability (COR-L23; first compound 0.6325 µM) of 0.621. The relative viability (COR-L23; first compound 2 µM) was 0.657, the relative viability (COR-L23; first compound 6.325 µM) was 0.461 and the relative viability (COR-L23; first compound 20 µM) was 0.372. For the same molecule, the relative viability (PC-14; first compound 0.2 µM) was 0.854, the relative viability (PC-14; first compound 0.6325 µM) was 0.839 and the relative viability (PC-14; first compound 2 µM) was 0.873. The relative viability (PC-14; first compound 6.325 µM) was 0.728, the relative viability (PC-14; first compound 20 µM) was 0.254 and the relative viability (EPLC-272H; first compound 0.2 µM) was 0.911. It also gave a relative viability (EPLC-272H; first compound 0.6325 µM) of 0.925, a relative viability (EPLC-272H; first compound 2 µM) of 0.901 and a relative viability (EPLC-272H; first compound 6.325 µM) of 0.666. The relative viability (EPLC-272H; first compound 20 µM) was 0.278, the relative viability (NCI-H2023; first compound 0.2 µM) was 0.551 and the relative viability (NCI-H2023; first compound 0.6325 µM) was 0.598. It also gave a relative viability (NCI-H2023; first compound 2 µM) of 0.573, a relative viability (NCI-H2023; first compound 6.325 µM) of 0.406 and a relative viability (NCI-H2023; first compound 20 µM) of 0.111. It also gave a relative viability (LCLC-103H; first compound 0.2 µM) of 1, a relative viability (LCLC-103H; first compound 0.6325 µM) of 1 and a relative viability (LCLC-103H; first compound 2 µM) of 1.1. The relative viability (LCLC-103H; first compound 6.325 µM) was 0.909, the relative viability (LCLC-103H; first compound 20 µM) was 0.985 and the relative viability (NCI-H1734; first compound 0.2 µM) was 0.657. It also gave a relative viability (NCI-H1734; first compound 0.6325 µM) of 0.677, a relative viability (NCI-H1734; first compound 2 µM) of 0.596 and a relative viability (NCI-H1734; first compound 6.325 µM) of 0.379. For the same molecule, the relative viability (NCI-H1734; first compound 20 µM) was 0.242, the relative viability (NCI-H2009; first compound 0.2 µM) was 0.964 and the relative viability (NCI-H2009; first compound 0.6325 µM) was 1.1. It also gave a relative viability (NCI-H2009; first compound 2 µM) of 1.1, a relative viability (NCI-H2009; first compound 6.325 µM) of 1.02 and a relative viability (NCI-H2009; first compound 20 µM) of 0.732.
